Measurements reported in patent US7579486B2, “Metalloprotein inhibitors” (Regents of the University of California, San Diego, priority 2004, dated 2009).
Where two headings read alike, the source gives them in different places.

Tests used:
[1] = target: T1, human MMP-1 catalytic domain (Homo sapiens, UniProt P03956); assay: MMP-1 fluorescent microplate assay (BIOMOL kit); format: biochemical; settings: fluorescence-based assay, 1 h at 37° C. with inhibitor, pH 7.5; read-out: IC50 against MMP-1
T1 sequence (P03956 100-268): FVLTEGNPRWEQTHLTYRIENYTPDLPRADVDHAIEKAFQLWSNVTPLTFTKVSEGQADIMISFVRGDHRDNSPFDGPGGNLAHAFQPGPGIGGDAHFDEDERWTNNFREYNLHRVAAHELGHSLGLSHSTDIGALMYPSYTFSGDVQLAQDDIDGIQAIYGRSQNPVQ
From the text: (§1) Experiments were repeated at least three times.

[2] = target: human MMP-2 catalytic domain (Homo sapiens, UniProt P08253); assay: MMP-2 fluorescent microplate assay (BIOMOL kit); format: biochemical; settings: for IC50: fluorescence-based assay, 1 h at 37° C. with inhibitor, pH 7.5, read-out: IC50 against MMP-2
human MMP-2 catalytic domain, sequence (P08253 110-452): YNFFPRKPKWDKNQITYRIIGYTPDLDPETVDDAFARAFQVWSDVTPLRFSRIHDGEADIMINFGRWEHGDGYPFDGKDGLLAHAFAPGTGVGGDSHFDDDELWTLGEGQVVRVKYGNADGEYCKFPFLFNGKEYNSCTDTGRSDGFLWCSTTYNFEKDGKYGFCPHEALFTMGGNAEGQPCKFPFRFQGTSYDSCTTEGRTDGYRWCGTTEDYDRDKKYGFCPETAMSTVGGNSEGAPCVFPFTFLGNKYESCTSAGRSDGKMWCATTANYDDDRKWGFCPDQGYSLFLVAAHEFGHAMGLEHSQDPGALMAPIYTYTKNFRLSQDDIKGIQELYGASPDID
From the text: as §1

[3] = tested on: neonatal rat cardiac fibroblasts; assay: Cell invasion assay (Chemicon ECM 555); format: cell-based; settings: 250 nM, 20 h
Protocol: Cell Invasion Assay. A cell invasion assay kit was purchased from Chemicon International (Cat. No. ECM 555) and the assay was performed as per kit instructions with minor modifications. Rat cardiac fibroblasts (CF) were prepared as previously described (F. J. Villarreal, N. N. Kim, G. D. Ungab, M. P. Printz, W. H. Dillmann, Circulation 1993, 88, 2849). Briefly, CF were prepared from hearts of 1-2 day old Sprague Dawley rats. Following collagenase digestions (4×), non-myocyte cells (mostly fibroblasts) were isolated by Percoll density gradient. The cell suspension was plated onto uncoated tissue culture dishes for 30 min to allow preferential attachment of CF to the bottom of the dish. The non-adherent cells were removed and fresh media (Dulbecco's modified Eagle's media +10% fetal bovine serum) was added. CF were allowed to proliferate to confluence and then trypsinized and frozen at −70° C. Stocks were freshly plated for the experiment and used from second passage. When reaching 90% confluence, cells were serum deprived for 24 h and then treated according to the experimental design (vide infra).
The CF were trypsinized once more and suspended in fresh serum-free media. Inhibitors AM-5 and AM-6 were dissolved in DMSO and diluted 10-fold in serum free media. […] Increased fluorescence indicates the presence of invaded cells. […]

[4] = target: HDAC; assay: Inhibition of histone deacetylase (HDAC); format: biochemical; settings: read-out: Average IC50 against HDAC
[5] = target: LF (Bacillus anthracis, UniProt P15917); assay: biochemical; set-up: species or system B. anthracis
LF, sequence (P15917 34-809 limits assumed): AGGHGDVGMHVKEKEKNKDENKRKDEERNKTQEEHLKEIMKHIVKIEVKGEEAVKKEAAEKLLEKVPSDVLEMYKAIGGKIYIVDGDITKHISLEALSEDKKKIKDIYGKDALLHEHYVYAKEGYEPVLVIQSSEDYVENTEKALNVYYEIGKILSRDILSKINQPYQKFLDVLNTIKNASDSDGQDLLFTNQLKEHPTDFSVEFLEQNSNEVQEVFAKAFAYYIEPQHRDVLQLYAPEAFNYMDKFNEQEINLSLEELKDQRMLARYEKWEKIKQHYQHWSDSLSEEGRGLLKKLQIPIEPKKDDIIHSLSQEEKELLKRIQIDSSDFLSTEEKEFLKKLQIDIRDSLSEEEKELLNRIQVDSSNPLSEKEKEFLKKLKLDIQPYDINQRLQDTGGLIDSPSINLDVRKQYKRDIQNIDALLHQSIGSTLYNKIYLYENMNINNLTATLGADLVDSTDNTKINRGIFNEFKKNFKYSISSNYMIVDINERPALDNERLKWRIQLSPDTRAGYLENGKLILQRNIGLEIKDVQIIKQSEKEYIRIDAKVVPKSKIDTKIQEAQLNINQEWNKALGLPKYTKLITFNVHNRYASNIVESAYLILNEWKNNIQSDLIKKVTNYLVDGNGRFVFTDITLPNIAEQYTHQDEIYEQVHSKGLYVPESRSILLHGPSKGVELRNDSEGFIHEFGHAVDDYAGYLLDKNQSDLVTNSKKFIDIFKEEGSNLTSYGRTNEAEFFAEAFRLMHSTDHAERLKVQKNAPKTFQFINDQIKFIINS

[6] = read-out: Average IC50 against LF

Row | SMILES | IC50 [1] [µM] | IC50 [2] [µM] | potency against MMP-2 compared with MMP-3, in words [2] | further results
1 | Cc1cc(=O)c(O)c(C(=O)Nc2ccc(-c3ccccc3)cc2)o1 [AM-1, 3-Hydroxy-6-methyl-pyran-4(1H)-one-2-carboxy-N-(4-biphenylamide)] | > 50 | 36 |  | 
2 | Cc1cc(=O)c(O)c(C(=O)NCc2ccc(-c3ccc(-c4ccccc4)cc3)cc2)o1 [AM-6, 3-Hydroxy-6-methyl-pyran-4(1H)-one-2-carboxy-N-(4-biphenylbenzylamide)] | > 50 | > 50 | substantially less potent against MMP-2 | reduction of invasion of neonatal rat cardiac fibroblasts through a collagen membrane [3]: 55%
3 | Cc1cc(=O)c(O)c(C(=O)NCc2ccc(-c3ccc(C#N)cc3)cc2)o1 [AM-5, 3-Hydroxy-6-methyl-pyran-4(1H)-one-2-carboxy-N-(4-(4-cyanophenyl)benzylamide)] | > 50 | 0.61 | substantially less potent against MMP-2 | reduction of invasion of neonatal rat cardiac fibroblasts through a collagen membrane [3]: 67%
4 | Cc1occc(=S)c1O [Thiomaltol, thiomaltol] |  |  |  | IC50 [4]: 247 µM; IC50 [5]: 260 µM
5 | On1ccccc1=S [1,2-HOPTO] |  |  |  | IC50 [4]: 860 µM; IC50 [5, 6]: 3900 µM
6 | Cc1cc(=O)c(O)c(C(=O)NCc2ccc(-c3ccccc3)cc2)o1 [AM-2, 3-Hydroxy-6-methyl-pyran-4(1)-one-2-carboxy-N-(4-phenylbenzylamide)] | > 50 | 9.3 | substantially less potent against MMP-2 | 
7 | O=C(NCc1ccc(-c2ccccc2)cc1)c1cccc(=O)n1O [compound 20] | > 12.5 | 0.9 |  | 
8 | Cc1cc(=O)c(O)c(C(=O)NCCc2ccc(-c3ccccc3)cc2)o1 [AM-3] | > 50 | 27 |  | 
9 | O=C(NCc1ccc(-c2ccccc2)cc1)c1occc(=S)c1O [PY-2S (27), 3-Hydroxy-4-thiopyrone-2-carboxy-N-(4-phenylbenzylamide)] |  |  |  | IC50 [5]: 38 µM
10 | CC(=O)NO [AHA (N-hydroxyacetamide), N-hydroxyacetamide, reference compound] |  |  |  | IC50 [4]: 3200 µM; IC50 [5, 6]: 11400 µM
11 | O=C(NCCc1ccc(-c2ccccc2)cc1)c1occc(=S)c1O [PY-3S (30)] |  |  |  | IC50 [5]: 18.5 µM
12 | COc1ccc(CNC(=O)c2oc(C)cc(=O)c2O)cc1 [AM-4] | > 50 | > 50 | substantially less potent against MMP-2 | 
